The record followed here is patent US7910723B2, “IG20 splice variants therapeutics for cancer” (The Board of Trustees of the University of Illinois, priority 2006, dated 2011).

Assay type in all cases: cell-based
Series [1] deals with HeLa cells. The series is described as follows: Spontaneous apoptosis of HeLa cells (Hoechst nuclear condensation, TMRM mitochondrial depolarization). The note with it: 72 hours post-transduction. As to the method:
FIG. 1 illustrates effect of down-modulation of IG20-SVs in HeLa cells. (A) Summary of results showing percentage of cells with increased nuclear condensation as measured by Hoechst staining from three independent experiments. The P value was <0.005 for all test groups. Hoechst Staining-72 hours post-transduction was performed and HeLa cells were collected and stained with 1 μg/mL of Hoechst and subjected to FACS analysis. Percentages of highly positive cells (apoptotic cells) are indicated on the histograms. (B) Summary of results showing percentage of cells with increased mitochondrial depolarization from three independent experiments. The P value was <0.005 for all test groups. The data were collected from only GFP positive cells. […] Loss of staining as a marker of mitochondrial depolarization was detected by FACS.
Spontaneous cell death was determined by nuclear condensation (Hoechst 33342) and loss of mitochondrial membrane potential (TMRM staining) (FIG. 1A-B). […] Whether the underlying cause of increased spontaneous apoptosis was similar to that noted after induction of apoptosis by the extrinsic (caspase-8 activation) or the intrinsic (caspase-9 activation) pathway was analyzed by determining the percentage of cells that harbored active caspases 8 and 9 using flow cytometry.
Hoechst Staining. […] Cells with condensed chromatin were analyzed using a BD-LSR (Becton Dickinson, N.J.). […]

Series [2] concerns HeLa cells. Description: CFSE dilution assay, HeLa. The note with it: versus control. As to the method: Cell Growth. 24 hours post-transduction, HeLa cells were plated as described in materials and methods. Cells were then harvested and viable cells (trypan blue negative cells) were counted on indicated days. Data represent Mean+SD of triplicates. Cell proliferation. 24 hours post-transduction HeLa cells were stained with CF SE-red (SNARF-1 carboxylic acid, acetate, succinimidyl ester), harvested on indicated days and evaluated for CFSE-dilution by FACS. The numbers on the histograms indicate geometric peak mean intensities of CFSE staining in the transduced cells. Cell survival. Crystal violet staining of cells surviving upon IG20 down-modulation after transduction shown C-G.
In order to assess the effects on cell growth and proliferation, various shRNA-expressing viable cells were counted. […] The cells were stained with CFSE and cell division was monitored. […] Further confirmation was obtained by plating equal numbers of HeLa cells expressing various shRNAs and determining the number and size of colonies after 12 days.
CFSE Dilution Assay. 24 hours post-transduction, 5×10^5 HeLa or 8×10^5 PA-1 cells were stained with 2 μM SNARF-1 carboxylic acid, acetate, succinimidyl ester (S-22801, Molecular Probes, Invitrogen, CA) for 15 minutes at 37° C. […] Every other day, cells were collected, washed and CFSE dilution, as an indicator of cell division, was determined by FACS analysis.

Series [3] deals with PA-1 ovarian carcinoma cells. The series is described as follows: Spontaneous apoptosis of PA-1 ovarian carcinoma cells. The note with it: PA-1, 72 hours post-transduction. As to the method: The effects of IG20 down-modulation in PA-1 cells were analyzed. Down-modulation of endogenous IG20 in PA-1 cells was analyzed. RT-PCR of IG20-SVs using F2-B2 primers from PA-1 cells 72 hours post-transduction was performed. Amplification of only IG20pa and MADD using 13L-F and B2 primers was performed. Nuclear Condensation was also determined. 72 hours post-transduction, PA-1 cells were stained with Hoechst stain and analyzed by FACS. Mitochondrial Depolarization was performed. 72 hours post transduction, PA-1 cells were stained with TMRM and analyzed by FACS.
Hoechst Staining. 5×10^5 transduced cells were collected and washed in cold PBS. 1 jig/mL Hoechst 33342 and 5 jig/mL Propidium Iodide (Sigma, St. Louis, Mo.) were used to stain cells for five minutes. Cells with condensed chromatin were analyzed using a BD-LSR (Becton Dickinson, N.J.). Highly PI-positive cells which represent necrotic or late-apoptotic cells were excluded from the analysis. Only GFP-positive cells were included in the analysis.
TMRM staining. 5×10^5 transduced cells were collected and washed in cold PBS and then stained with 100 nM tetramethylrhodamine methyl ester (Molecular Probes, Invitrogen, CA) for 15 minutes at 37° C. Cells were washed with cold PBS and then subjected to FACS analysis using a FACS Calibur. Only GFP-positive (shRNA-expressing) cells were included in the analysis.

Another series has as its system ERK1/2. Description: TNF-α induced ERK phosphorylation in PA-1 cells (immunoblot). The following applies: PA-1, TNF-α 50 ng/mL 15 min, 48 h transduction, compared to SCR. As to the method:
(A) HeLa cells (3×10^6 per 100 mm dish) were transduced with different lentiviruses expressing SCR, Mid and 16E ShRNA for 48 h. The cells were then serum starved for 6 h and were either left untreated or treated with TNF-α (50 ng/mL) for 15 min. Cell lysates were analyzed for phosphorylated ERK or total ERK by immunoblot. (B) PA-1 cells (5×10^6 per 100 mm dish) were transduced with different lentiviruses expressing SCR, Mid and 13L ShRNA for 48 h. The cells were then serum starved for 6 h and were either left unstimulated or stimulated with TNF-α (50 ng/mL) for 15 min. Cell lysates were analyzed for phosphorylated ERK or total ERK by immunoblot. (C) HeLa cells (3×10^5 per 60 mm dish) were either left untransfected or transfected with either SirMADD or EYFPC1 plasmids. Twenty-four hours post-transfection, the cells were infected with Mid ShRNA. Forty-eight hours post transduction, the cells were either left unstimulated or stimulated with TNF-α (50 ng/mL) for 15 min. Cell lysates were analyzed for phosphorylated ERK or total ERK by immunoblot. […]
Whether MADD isoform alone is playing a critical role in TNF-α induced ERK activation was determined. […] To delineate the role of MADD from DENN-SV, the effect of IG20 down-modulation upon TNF-α induced ERK phosphorylation was analyzed in PA-1 ovarian carcinoma cell line which expresses only two IG20 isoforms namely, MADD and DENN-SV. […]

On to “13L-shRNA: shRNA targeting exon 13L (IG20, MADD), 5′ CGGCGAATCTATGACAATC-3′ (SEQ ID NO: 4)”, for which the “Spontaneous apoptosis (nuclear condensation, mitochondrial depolarization)” value in the series on HeLa cells [1] is “consistently higher in 13L-treated, relative to Mid-treated, cells”. In addition, in the series on HeLa cells [2], the “CFSE-dilution with time (cell division)” value was “Lack of difference in CFSE-dilution”. Also, the “Cells that underwent spontaneous apoptosis” value in series [3] is given as 50%. Besides, the “TNF-α induced ERK activation” value with ERK1/2 is reported as “significant abrogation of ERK activation”.
